According to patent publication US12215106B2, “Pharmaceutical compounds and therapeutic methods” (RUTGERS, THE STATE UNIVERSITY OF NEW JERSEY, priority 2018, dated 2025):
Where a name gives a salt, the structure may show the parent alone. Read-outs that look alike come from different tables or passages of the source.

Assay: Plasma pharmacokinetics and brain distribution after single IV, IP and oral administration
Format: in vivo
Procedure: (§1) The objective of this study was to investigate the plasma pharmacokinetics and brain distribution of Compound (14 in male C57BL/6 mice following a single intravenous, intraperitoneal and oral administration. A group of sixty-three male mice were divided into three groups (Group 1: 2 mg/kg/IV; Group 2: 10 mg/kg/IP and Group 3: 10 mg/kg/PO) with each group comprising of twenty-one mice.
Animals in Group 1 were administered intravenously with Compound 15 solution formulation in 5% NMP, 5% Solutol HS-15, 30% PEG-400 and 60% Captisol (20% w/v) at 2 mg/kg dose. […] Considering mortality intravenous dose was reduced to 2 mg/kg.
Animals in Group 2 and 3 were administered with Compound 15 solution formulation in 5% NMP, 5% Solutol HS-15, 30% PEG-400 and 60% Captisol (20% w/v) at a dose of 10 mg/kg by intraperitoneal and oral route respectively.
(§2) Blood samples (approximately 60 μL) were collected under light isoflurane anesthesia from retro orbital plexus from a set of three mice at 0.08, 0.35, 1, 3, 6, 12 and 24 hr. Plasma samples were separated by centrifugation of whole blood and stored below −70±10° C. until bioanalysis. Immediately after collection of blood, brain samples were collected from set of three mice at each time point. Brain samples were homogenized using ice-cold phosphate buffer saline (pH-7.4) in a ratio of 2 (buffer):1(brain); and homogenates were stored below −70±10° C. until analysis. Total homogenate volume was three times the brain weight. All samples were processed for analysis by protein precipitation using acetonitrile and analyzed with fit-for-purpose LC/MS/MS method (LLOQ2.00 ng/mL for plasma and 3.00 ng/g for brain). Pharmacokinetic parameters were calculated using the non-compartmental analysis tool of Phoenix WinNonlin® (Version 7.0). Pharmacokinetic parameters of Compound 15 are summarized below.
as §1, with “Compound 16” for “Compound (14”, “1: 10” for “1: 2”
Animals in Group 1 were administered intravenously with Compound 16 solution formulation in 5% NMP, 5% Solutol HS-15 and 90% normal saline at 10 mg/kg dose.
Animals in Group 2 and 3 were administered with Compound 16 solution formulation in 5% NMP, 5% Solutol HS-15 and 90% normal saline at a dose of 10 mg/kg by intraperitoneal and oral route respectively.
as §2, with “(LLOQ—1.00” for “(LLOQ2.00”, “16” for “15”
as §1, with “17” for “(14”, “mice. […]” for “mice.”

[1] = male, C57BL/6, mouse, brain, ip, 10 mg/kg, IP 10 mg/kg, read-out: Brain-to-plasma ratio
[2] = male, C57BL/6, mouse, brain, po, 10 mg/kg, PO 10 mg/kg, read-out: Brain-to-plasma ratio
[3] = male, C57BL/6, mouse, in vivo, ip, 10 mg/kg
[4] = male, C57BL/6, mouse, in vivo, ip, 10 mg/kg, 12 h
[5] = male, C57BL/6, mouse, in vivo, ip, 10 mg/kg, 24 h
[6] = male, C57BL/6, mouse, in vivo, ip, 10 mg/kg, Brain concentration, individual animal
[7] = male, C57BL/6, mouse, in vivo, ip, 10 mg/kg, Mean brain conc.
[8] = male, C57BL/6, mouse, in vivo, ip, 10 mg/kg, Mean plasma conc.
[9] = male, C57BL/6, mouse, in vivo, ip, 10 mg/kg, Plasma concentration, individual animal
[10] = male, C57BL/6, mouse, in vivo, iv, 2 mg/kg
[11] = male, C57BL/6, mouse, in vivo, iv, 2 mg/kg, 6 h
[12] = male, C57BL/6, mouse, in vivo, iv, 2 mg/kg, 12 h
[13] = male, C57BL/6, mouse, in vivo, iv, 2 mg/kg, 24 h
[14] = male, C57BL/6, mouse, in vivo, iv, 2 mg/kg, Brain concentration, individual animal
[15] = male, C57BL/6, mouse, in vivo, iv, 2 mg/kg, Mean brain conc.
[16] = male, C57BL/6, mouse, in vivo, iv, 2 mg/kg, Mean plasma conc.
[17] = male, C57BL/6, mouse, in vivo, iv, 2 mg/kg, Plasma concentration, individual animal
[18] = male, C57BL/6, mouse, in vivo, po, 10 mg/kg
[19] = male, C57BL/6, mouse, in vivo, po, 10 mg/kg, 24 h
[20] = male, C57BL/6, mouse, in vivo, po, 10 mg/kg, Brain concentration, individual animal
[21] = male, C57BL/6, mouse, in vivo, po, 10 mg/kg, Mean brain conc.
[22] = male, C57BL/6, mouse, in vivo, po, 10 mg/kg, Mean plasma conc.
[23] = male, C57BL/6, mouse, in vivo, po, 10 mg/kg, Plasma concentration, individual animal
[24] = male, C57BL/6, mouse, in vivo, IV 2 mg/kg, read-out: Brain-to-plasma ratio

`[2H]C([2H])([2H])Oc1ccc(Nc2nc(-c3c(C)nc4ccccn34)cs2)cc1` [Compound 15, N-(4-(methoxy-d3)phenyl)-4-(2-methylimidazo[1,2-c]pyridin-3-yl)thiazol-2-amine hydrochloride] gave a Kp at 0.08 h [1] of 0.19, a Kp at 0.35 h [1] of 0.63 and a Kp at 1 h [1] of 0.75. For the same molecule, the Kp at 3 h [1] was 0.36, the Kp at 6 h [1] was 0.38 and the Kp (male, C57BL/6, mouse, brain, ip, 10 mg/kg, IP 10 mg/kg, read-out: brain-to-plasma ratio, range over time) was 0.19 to 0.75. It also gave a Kp (male, C57BL/6, mouse, brain, iv, 2 mg/kg, IV 2 mg/kg, read-out: brain-to-plasma ratio, range over time) of 1.17 to 1.64, a Kp at 0.08 h [2] of 0.1 and a Kp at 0.35 h [2] of 0.41. For the same molecule, the Kp at 1 h [2] was 1.03, the Kp at 3 h [2] was 0.7 and the Kp at 6 h [2] was 0.6. For the same molecule, the Kp at 12 h (male, C57BL/6, mouse, brain, po, 10 mg/kg, PO 10 mg/kg, 12 hr, read-out: Brain-to-plasma ratio) was 0.62, the Kp (male, C57BL/6, mouse, brain, po, 10 mg/kg, PO 10 mg/kg, read-out: brain-to-plasma ratio, range over time) was 0.1 to 1.03 and the Kp (male, C57BL/6, mouse, brain, po, 10 mg/kg, summary data, read-out: Brain to plasma ratio following a single oral dose) was 1.03. The “Brain concentrations quantifiable up to” value [3] was “up to 6 hr”, the “Plasma concentrations quantifiable up to” value [3] was “up to 6 hr” and the “Brain concentration, individual animal” value [4] was 0.00 ng/g. For the same molecule, the “Plasma concentration, individual animal” value [4] was 0.00 ng/mL, the “Brain concentration, individual animal” value [5] was 0.00 ng/g and the “Plasma concentration, individual animal” value [5] was 0.00 ng/mL. For the same molecule, the concentration at 0.08 h [6] was 38.4 ng/g, the concentration at 0.35 h [6] was 287 ng/g and the concentration at 1 h [6] was 383 ng/g. The concentration at 3 h [6] was 48.4 ng/g, the concentration at 12 h [6] was 0 ng/g and the concentration at 24 h [6] was 0 ng/g. The concentration at 0.08 h [7] was 43.6 ng/g, the concentration at 0.35 h [7] was 266 ng/g and the concentration at 1 h [7] was 305 ng/g. The concentration at 3 h [7] was 57.7 ng/g, the concentration at 6 h [7] was 6.06 ng/g and the concentration at 12 h [7] was 0 ng/g. The concentration at 24 h [7] was 0 ng/g, the concentration at 0.08 h [8] was 229 ng/mL and the concentration at 0.35 h [8] was 422 ng/mL. The concentration at 1 h [8] was 409 ng/mL, the concentration at 3 h [8] was 160 ng/mL and the concentration at 6 h [8] was 16.1 ng/mL. The concentration at 12 h [8] was 0 ng/mL, the concentration at 24 h [8] was 0 ng/mL and the concentration at 0.08 h [9] was 228 ng/mL. For the same molecule, the concentration at 0.35 h [9] was 467 ng/mL, the concentration at 1 h [9] was 563 ng/mL and the concentration at 3 h [9] was 174 ng/mL. The concentration at 12 h [9] was 0 ng/mL, the concentration at 24 h [9] was 0 ng/mL and the “Brain concentrations quantifiable up to” value [10] was “up to 3 hr”. The “Vss, fold more than normal volume of total body water (0.7 L/kg)” value [10] was 11 fold, the “Brain concentration, individual animal” value [11] was 0.00 ng/g and the “Plasma concentration, individual animal” value [11] was 0.00 ng/mL. The “Brain concentration, individual animal” value [12] was 0.00 ng/g, the “Plasma concentration, individual animal” value [12] was 0.00 ng/mL and the “Brain concentration, individual animal” value [13] was 0.00 ng/g. The “Plasma concentration, individual animal” value [13] was 0.00 ng/mL, the concentration at 0.08 h [14] was 392 ng/g and the concentration at 0.35 h [14] was 270 ng/g. It also gave a concentration at 1 h [14] of 67.2 ng/g, a concentration at 6 h [14] of 0 ng/g and a concentration at 12 h [14] of 0 ng/g. It also gave a concentration at 24 h [14] of 0 ng/g, a concentration at 0.08 h [15] of 366 ng/g and a concentration at 0.35 h [15] of 231 ng/g. For the same molecule, the concentration at 1 h [15] was 80 ng/g, the concentration at 3 h [15] was 27.2 ng/g and the concentration at 6 h [15] was 0 ng/g. The concentration at 12 h [15] was 0 ng/g, the concentration at 24 h [15] was 0 ng/g and the concentration at 0.08 h [16] was 313 ng/mL. The concentration at 0.35 h [16] was 149 ng/mL, the concentration at 1 h [16] was 61.9 ng/mL and the concentration at 3 h [16] was 16.6 ng/mL. It also gave a concentration at 6 h [16] of 0 ng/mL, a concentration at 12 h [16] of 0 ng/mL and a concentration at 24 h [16] of 0 ng/mL. It also gave a concentration at 0.08 h [17] of 298 ng/mL, a concentration at 0.35 h [17] of 139 ng/mL and a concentration at 6 h [17] of 0 ng/mL. The concentration at 12 h [17] was 0 ng/mL, the concentration at 24 h [17] was 0 ng/mL and the “Brain concentrations quantifiable up to” value [18] was “up to 12 hr”. The “Plasma concentrations quantifiable up to” value [18] was “up to 12 hr”, the “Brain concentration, individual animal” value [19] was 0.00 ng/g and the “Plasma concentration, individual animal” value [19] was 0.00 ng/mL. The concentration at 0.08 h [20] was 8.31 ng/g, the concentration at 1 h [20] was 190 ng/g and the concentration at 24 h [20] was 0 ng/g. It also gave a concentration at 0.08 h [21] of 7.99 ng/g, a concentration at 0.35 h [21] of 108 ng/g and a concentration at 1 h [21] of 253 ng/g. For the same molecule, the concentration at 3 h [21] was 66 ng/g, the concentration at 6 h [21] was 6.63 ng/g and the concentration at 12 h [21] was 3.63 ng/g. For the same molecule, the concentration at 24 h [21] was 0 ng/g, the concentration at 0.08 h [22] was 78.2 ng/mL and the concentration at 0.35 h [22] was 261 ng/mL. The concentration at 1 h [22] was 245 ng/mL, the concentration at 3 h [22] was 93.7 ng/mL and the concentration at 6 h [22] was 11.1 ng/mL. For the same molecule, the concentration at 12 h [22] was 5.82 ng/mL, the concentration at 24 h [22] was 0 ng/mL and the concentration at 0.35 h [23] was 251 ng/mL. For the same molecule, the concentration at 12 h [23] was 8.42 ng/mL, the concentration at 24 h [23] was 0 ng/mL and the Kp at 0.08 h [24] was 1.17. It also gave a Kp at 0.35 h [24] of 1.55, a Kp at 1 h [24] of 1.29 and a Kp at 3 h [24] of 1.64. It also gave a bioavailability (male, C57BL/6, mouse, plasma, po, 10 mg/kg, PO 10 mg/kg, AUClast considered, read-out: Oral bioavailability, % F) of 64%, a bioavailability (male, C57BL/6, mouse, plasma, po, 10 mg/kg, summary data, read-out: Oral bioavailability) of 64% and a Tmax (male, C57BL/6, mouse, plasma, IP 10 mg/kg) of 21 min. The clearance (male, C57BL/6, mouse, plasma, IV 2 mg/kg, read-out: CL, plasma clearance) was 130 mL/min/kg, the half-life (male, C57BL/6, mouse, plasma, IV 2 mg/kg, read-out: T1/2, terminal elimination half-life (converted)) was 52.8 min and the Tmax (male, C57BL/6, mouse, plasma, PO 10 mg/kg) was 21 min. For the same molecule, the “mortality immediately after dose administration” value (mouse, in vivo, iv, 10 mg/kg) was “mortality was observed in four animals”.
